Drawing on US20240262815A1, “HETEROARYL DERIVATIVE, METHOD FOR PREPARING SAME, AND PHARMACEUTICAL COMPOSITION COMPRISING SAME AS ACTIVE INGREDIENT” (VORONOI INC., priority 2021, published 2024), this text covers GI50 for 21 molecules.

A word on the GI50: it is the concentration at which growth is held to half of that of the control.

One experiment relates to SK-BR-3 cancer cells. Briefly: Inhibitory activity against proliferation of SK-BR-3 cancer cells (CellTiter-Glo). As to conditions: Homo sapiens, SK-BR-3, 120 h, ErbB2-overexpressing SK-BR-3 cells, 120 hours after treatment. The experiment is classed as cell-based. The gist of the method:
(§1)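 GI50 derived from % growth relative to control, measured by CellTiter-Glo luminescence after 120 h compound exposure (12 concentrations, 0.2 nM-5 μM final, n=3). BT-474 grown in RPMI-1640/20% FBS, SK-BR-3 in McCOY'S 5A/10% FBS; seeding 48 h pre-treatment.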
(In ATP-based viability assays light output follows the ATP content of the culture.)

A further experiment relates to BT-474 cancer cells. In words: Inhibitory activity against proliferation of BT-474 cancer cells (CellTiter-Glo). The experiment is classed as cell-based. To be noted: Homo sapiens, BT-474 ErbB2-overexpressing cancer cells, 120 hours after treatment. The gist of the method: as §1

`C=CC(=O)Nc1cc(Nc2cc(N3OCC[C@@H]3c3cccc(-c4cccc(F)c4F)c3)ncn2)c(OC)cc1N1CCN(C)CC1` [Example 284, (R)-N-(5-((6-(3-(2′,3′-difluoro-[1,1′-biphenyl]-3-yl)isoxazolidin-2-yl)pyrimidin-4-yl)-amino)-4-methoxy-2-(4-methylpiper-azin-1-yl)phenyl)-acrylamide]: the GI50 in the experiment on SK-BR-3 cancer cells and in the experiment on BT-474 cancer cells was less than 50 nM each time.
As for `COc1cc(N2CCN(C)CC2)c(NC(=O)/C=C/CN(C)C)cc1Nc1cc(N2OCC[C@@H]2c2cccc(-c3cccc(F)c3)c2)ncn1` [Example 285, (R,E)-4-(dimethyl-amino)-N-(5-((6-(3-(3′-fluoro-[1,1′-biphenyl]-3-yl)-isoxazolidin-2-yl)-pyrimidin-4-yl)-amino)-4-methoxy-2-(4-methylpiper-azin-1-yl)phenyl)-but-2-enamide], the GI50 in the experiment on SK-BR-3 cancer cells and in the experiment with BT-474 cancer cells was less than 50 nM throughout.
Consider `C=CC(=O)Nc1cc(Nc2cc(N3OCC[C@@H]3c3cccc(-c4cccc(F)c4)c3)ncn2)c(OC)cc1N1CCO[C@@H](C)C1` [Example 286, N-(5-((6-((R)-3-(3′-fluoro-[1,1′-biphenyl]-3-yl)-isoxazolidin-2-yl)-pyrimidin-4-yl)-amino)-4-methoxy-2-((S)-2-methyl-morpholino)phen-yl)acrylamide], for which the GI50 with SK-BR-3 cancer cells and in the experiment on BT-474 cancer cells was less than 50 nM in each case.
As for `C=CC(=O)Nc1cc(Nc2cc(N3OCC[C@@H]3c3cccc(-c4cccc(F)c4)c3)ncn2)c(OC)cc1N1C[C@H]2C[C@@H]1CO2` [Example 287, N-(2-((1R,4R)-2-oxa-5-azabicyclo-[2.2.1]heptan-5-yl)-5-((6-((R)-3-(3′-fluoro-[1,1′-biphenyl]-3-yl)-isoxazolidin-2-yl)-pyrimidin-4-yl)-amino)-4-meth-oxyphenyl)acryl-amide], the GI50 in the experiment with SK-BR-3 cancer cells and in the experiment on BT-474 cancer cells was less than 50 nM in each case.
`C=CC(=O)Nc1cc(Nc2cc(N3OCC[C@@H]3c3cccc(-c4cccc(F)c4)c3)ncn2)c(OC)cc1N1CCN(C)C(=O)C1` [Example 288, (R)-N-(5-((6-(3-(3′-fluoro-[1,1′-biphenyl]-3-yl)-isoxazolidin-2-yl)-pyrimidin-4-yl)-amino)-4-meth-oxy-2-(4-methyl-3-oxopiperazin-1-yl)phenyl)acryl-amide]: the GI50 in the experiment on SK-BR-3 cancer cells and in the experiment with BT-474 cancer cells was less than 50 nM throughout.
As for `C=CC(=O)Nc1cc(Nc2cc(N3OCC[C@@H]3c3cccc(-c4cccc(F)c4)c3)ncn2)c(OC)cc1N1CCN(C(C)=O)CC1` [Example 289, (R)-N-(2-(4-acetyl-piperazin-1-yl)-5-((6-(3-(3′-fluoro-[1,1′-biphenyl]-3-yl)isoxazolidin-2-yl)pyrimidin-4-yl)-amino)-4-methoxy-phenyl)acrylamide], the GI50 with SK-BR-3 cancer cells and in the experiment with BT-474 cancer cells was less than 50 nM throughout.
For `C=CC(=O)Nc1cc(Nc2cc(N3OCC[C@@H]3c3cccc(-c4cccc(F)c4)c3)ncn2)c(OC)cc1N1CCS(=O)(=O)CC1` [Example 290, (R)-N-(2-(1,1-dioxidothiomorph-olino)-5-((6-(3-(3′-fluoro-[1,1′-biphen-yl]-3-yl)isoxazol-idin-2-yl)pyrim-idin-4-yl)amino)-4-methoxyphen-yl)acrylamide], the GI50 with SK-BR-3 cancer cells and in the experiment with BT-474 cancer cells was less than 50 nM throughout.
As for `C=CC(=O)Nc1cc(Nc2cc(N3OCC[C@@H]3c3cccc(-c4cccc(F)c4)c3)ncn2)c(OC)cc1N1C[C@@H](C)O[C@@H](C)C1` [Example 292, N-(2-((2S,6R)-2,6-dimethylmorpho-lino)-5-((6-((R)-3-(3′-fluoro-[1,1′-biphenyl]-3-yl)-isoxazolidin-2-yl)-pyrimidin-4-yl)-amino)-4-methoxy-phenyl)acrylamide], the GI50 in the experiment with SK-BR-3 cancer cells and in the experiment on BT-474 cancer cells was less than 50 nM throughout.
Turning to `C=CC(=O)Nc1cc(Nc2cc(N3OCC[C@@H]3c3cccc(-c4cccc(F)c4)c3)ncn2)c(OC)cc1N1CCN(C2COC2)CC1` [Example 293, (R)-N-(5-((6-(3-(3′-fluoro-[1,1′-biphenyl]-3-yl)-isoxazolidin-2-yl)-pyrimidin-4-yl)-amino)-4-methoxy-2-(4-(oxetan-3-yl)-piperazin-1-yl)-phenyl)acrylamide], the GI50 is less than 50 nM in the experiment on SK-BR-3 cancer cells and 50 to 500 nM in the experiment on BT-474 cancer cells.
The corresponding values for `C=CC(=O)Nc1cc(Nc2cc(N3OCC[C@@H]3c3cccc(-c4cccc(F)c4)c3)ncn2)c(OC)cc1N1CCN(S(C)(=O)=O)CC1` [Example 294, (R)-N-(5-((6-(3-(3′-fluoro-[1,1′-biphenyl]-3-yl)-isoxazolidin-2-yl)-pyrimidin-4-yl)-amino)-4-methoxy-2-(4-(methylsulfon-yl)piperazin-1-yl)-phenyl)acrylamide] are less than 50 nM and less than 50 nM.
Consider `C=CC(=O)Nc1cc(Nc2cc(N3OCC[C@@H]3c3cccc(-c4cccc(F)c4)c3)ncn2)c(OC)cc1N1CC2(CN(C(=O)OC(C)(C)C)C2)C1` [Example 295, tert-butyl (R)-6-(2-acrylamido-4-((6-(3-(3′-fluoro-[1,1′-biphenyl]-3-yl)-isoxazolidin-2-yl)-pyrimidin-4-yl)-amino)-5-methoxy-phenyl)-2,6-diazaspiro[3.3]-heptane-2-carbox-ylate], for which the GI50 with SK-BR-3 cancer cells is 50 to 500 nM; in the experiment on BT-474 cancer cells it was less than 50 nM.
In the same order, the values of `C=CC(=O)Nc1cc(Nc2cc(N3OCC[C@@H]3c3cccc(C#Cc4ccccc4)c3)ncn2)c(OC)cc1N(C)CCN(C)C` [Example 297, (R)-N-(2-((2-(dimethylamino)-ethyl)(methyl)-amino)-4-methoxy-5-((6-(3-(3-(phen-ylethynyl)phenyl)-isoxazolidin-2-yl)-pyrimidin-4-yl)-amino)phenyl)-acrylamide] are less than 50 nM and less than 50 nM.
In the same order, the values of `C=CC(=O)Nc1cc(Nc2cc(N3OCC[C@@H]3c3cccc(-c4ccc(OC)nc4)c3)ncn2)c(OC)cc1N1CCN(C)CC1` [Example 298, (R)-N-(4-methoxy-5-((6-(3-(3-(6-methoxypyridin-3-yl)phenyl)-isox-azolidin-2-yl)-pyrimidin-4-yl)-amino)-2-(4-meth-ylpiperazin-1-yl)-phenyl)acrylamide] are less than 50 nM and less than 50 nM.
Consider `C=CC(=O)Nc1cc(Nc2cc(N3OCC[C@@H]3c3cccc(-c4ccc(OC)nc4)c3)ncn2)c(OC)cc1N(C)CCN(C)C` [Example 300, (R)-N-(2-((2-(dimethylamino)-ethyl)(methyl)-amino)-4-methoxy-5-((6-(3-(3-(6-methoxypyridin-3-yl)phenyl)isox-azolidin-2-yl)pyr-imidin-4-yl)amino)-phenyl)acrylamide], for which the GI50 in the experiment on SK-BR-3 cancer cells and in the experiment with BT-474 cancer cells was less than 50 nM each time.
For `C=CC(=O)Nc1cc(Nc2cc(N3OCC[C@@H]3c3cccc(-c4ccc(O)nc4)c3)ncn2)c(OC)cc1N(C)CCN(C)C` [Example 301, (R)-N-(2-((2-(dimethylamino)-ethyl)(methyl)-amino)-5-((6-(3-(3-(6-hydroxy-pyridin-3-yl)phen-yl)-isoxazolidin-2-yl)pyrimidin-4-yl)amino)-4-meth-oxyphenyl)acryl-amide], the concentration for 50% growth inhibition (GI50) in the experiment with SK-BR-3 cancer cells is 50 to 500 nM; with BT-474 cancer cells, less than 50 nM.
With `C=CC(=O)Nc1cc(Nc2cc(N3OCC[C@@H]3c3cccc(-c4cnc(C)c(F)c4)c3)ncn2)c(OC)cc1N1CCN(C)CC1` [Example 302, (R)-N-(5-((6-(3-(3-(5-fluoro-6-meth-ylpyridin-3-yl)-phenyl)isoxazol-idin-2-yl)pyrim-idin-4-yl)amino)-4-methoxy-2-(4-methylpiperazin-1-yl)phenyl)acryl-amide], the GI50 with SK-BR-3 cancer cells was 50 to 500 nM; with BT-474 cancer cells, less than 50 nM.
As for `C=CC(=O)Nc1cc(Nc2cc(N3OCC[C@@H]3c3cccc(-c4cnc(C)c(F)c4)c3)ncn2)c(OC)cc1N(C)CCN(C)C` [Example 303, (R)-N-(2-((2-(dimethylamino)-ethyl)(methyl)-amino)-5-((6-(3-(3-(5-fluoro-6-methylpyridin-3-yl)phenyl)isoxazol-idin-2-yl)pyrim-idin-4-yl)amino)-4-methoxyphenyl)-acrylamide], the GI50 in the experiment on SK-BR-3 cancer cells and with BT-474 cancer cells was less than 50 nM in each case.
With `C=CC(=O)Nc1cc(Nc2cc(N3OCC[C@@H]3c3cccc(-c4cccc(F)c4)c3)ncn2)c(OC)cc1N1CCN(CCN(C)C)CC1` [Example 304, (R)-N-(2-(4-(2-(dimethylamino)-ethyl)piperazin-1-yl)-5-((6-(3-(3′-fluoro-[1,1′-biphen-yl]-3-yl)isoxazol-idin-2-yl)pyrim-idin-4-yl)amino)-4-methoxyphenyl)-acrylamide], the GI50 in the experiment on SK-BR-3 cancer cells and with BT-474 cancer cells was less than 50 nM each time.
For `C=CC(=O)Nc1cc(Nc2cc(N3OCC[C@@H]3c3cccc(C#CC(C)(C)C)c3)ncn2)c(OC)cc1N(C)CCN(C)C` [Example 305, (R)-N-(2-((2-(dimethylamino)-ethyl)(methyl)-amino)-5-((6-(3-(3-(3,3-dimethyl-but-1-yn-1-yl)-phenyl)isoxazol-idin-2-yl)pyrim-idin-4-yl)amino)-4-methoxyphenyl)-acrylamide], the GI50 with SK-BR-3 cancer cells and in the experiment on BT-474 cancer cells was less than 50 nM throughout.
As to `C=CC(=O)Nc1cc(Nc2cc(N3OCC[C@@H]3c3cccc(-c4cccc(F)c4)c3)ncn2)c(OC)cc1N1C[C@H]2C[C@@H]1CN2C` [Example 306, N-(5-((6-((R)-3-(3′-fluoro-[1,1′-biphenyl]-3-yl)-isoxazolidin-2-yl)-pyrimidin-4-yl)-amino)-4-meth-oxy-2-((1R,4R)-5-methyl-2,5-diaza-bicyclo[2.2.1]-heptan-2-yl)phen-yl)acrylamide], the GI50 in the experiment on SK-BR-3 cancer cells and with BT-474 cancer cells was less than 50 nM in each case.
With `C=CC(=O)Nc1cc(Nc2cc(N3OCC[C@@H]3c3cccc(-c4cccc(F)c4)c3)ncn2)c(OC)cc1N1CCN(C)[C@@H](C)C1` [Example 307, N-(2-((S)-3,4-dimethylpiperazin-1-yl)-5-((6-((R)-3-(3′-fluoro-[1,1′-biphenyl]-3-yl)-isoxazolidin-2-yl)-pyrimidin-4-yl)-amino)-4-methoxy-phenyl)acrylamide], the GI50 in the experiment on SK-BR-3 cancer cells and in the experiment with BT-474 cancer cells was less than 50 nM each time.
